Test results taken from patent US20250049800A1, “VCP/p97 INHIBITOR FOR THE TREATMENT OF CANCER” (CASI Pharmaceuticals, Inc., priority 2021, published 2025).
Like-named read-outs stand apart in the source and are kept apart here. Blank lines part the entries; values can stand above or below the compound they belong to.

Legend:
SK-OV-3 (Ovary) = experiment: Cell Titer-Glo viability: single agent IC50 and Compound 1 + PARP inhibitor matrix (Bliss); type: cell-based
Description: (§1) The PARP inhibitors used for the study were talazoparib, olaparib and niraparib. […] was used as a reference control. […] For each drug agent on its own, IC50 values in each cell line were determined. Interactions of the combinations of Compound 1 and each PARP inhibitor was assessed as follows: […] Cisplatin and culture media were used as positive and negative control, respectively. The combination activities were assessed using CrownSyn software to determine synergy scores by Bliss Independence and Loewe additivity methods. […] Synergy scores calculated by both Bliss independence model and Loewe additivity model (see Greco, […]., Poch, G., Suhnel, J., Kundi, M., & Bodeker, W. (1992). Consensus on concepts and terminology for combined-action assessment: the […] agreement. […] Without being bound by theory, the Bliss independence model is often applied to asses synergy for non-interacting drugs that elicit their responses independently, e.g., by targeting separate pathways, whereas the Loewe additivity model may be more compatible where both drugs have similar modes of action on the same targets or pathways.

[1] = test system: DoTc2 4510 (Uterus/Cervix); experiment: as above; type: cell-based
Description: as §1

HCC1806 (Breast) = experiment: as above; type: cell-based; details: for IC50: single agent, read-out: Absolute IC50
Description: as §1

DU4475 (Breast) = experiment: as above; type: cell-based; details: for IC50: single agent, read-out: Absolute IC50
Description: as §1

IGR-OV1 (Ovary) = experiment: as above; type: cell-based; details: for IC50: single agent, read-out: Absolute IC50
Description: as §1

HCC1937 (Breast) = experiment: as above; type: cell-based
Description: as §1

MX-1 (Breast) = experiment: as above; type: cell-based
Description: as §1

HCC1395 (Breast) = experiment: as above; type: cell-based; details: for IC50: single agent, read-out: Absolute IC50
Description: as §1

OVCAR-8 (Ovary) = experiment: as above; type: cell-based; details: for IC50: single agent, read-out: Absolute IC50
Description: as §1

Capan-1 (Pancreas) = experiment: as above; type: cell-based; details: for IC50: single agent, read-out: Absolute IC50
Description: as §1

HL-60 cell line = experiment: Cell Titer-Glo viability, fixed agent + dose response agent combinations; type: cell-based, human; details: Homo sapiens
Description: (§2) The additional therapeutic agents for this example were azacitidine (Cayman Chemical Cat No. 11164), decitabine (Sigma Cat No. A3656) and venetoclax (InvivoChem Cat. No. V0001).
(§3) Cell Culture: Three human acute myeloid leukemia tumor cell lines were used in this study: HL60, MV4;11 and MOLM-13. HL60 and MV4;11 were grown in IMDM base media with 20% and 10% FBS, respectively. MOLM-13 was grown in RPMI 1640 base media with 20% FBS. All culture media contained 2 mM glutamine, 100 units/mL sodium penicillin G, […] gentamicin, and 100 µg/mL streptomycin sulfate. The tumor cells were cultured in tissue culture flasks in a humidified incubator at 37° C., in an atmosphere of 5% CO2 and 95% air. Assay: Tumor cells were seeded in duplicate in a volume of 100 µL/well of media into 96-well micro-culture plates at initial densities low enough to allow for several population doublings (typically three to five) during the indicated incubation period. After a 24 hour incubation, test agents were added to each well. After 72 hours of culture with test articles, cell viability was determined using the Cell Titer-Glo® (Promega G7571) assay. Briefly, Cell Titer-Glo® (Promega G7571) reagents were equilibrated at room temperature for 30 minutes; 100 μL per well was added at endpoint (72 hours). Plates were gently shaken for two minutes and then incubated at room temperature for ten minutes prior to reading luminescence on the BMG Clariostar Plus microplate reader.
(§4) An IC50 ratio for each combination was calculated from the ratio of the combination IC50 as compared to the applicable no fixed agent (vehicle) control.

MV4; 11 cell line = experiment: as above; type: cell-based, human; details: Homo sapiens
Description: as §2, §3, §4

MOML-13 cell line = experiment: as above; type: cell-based, human; details: Homo sapiens
Description: as §2, §3, §4

[2] = CB-5083 tested previously in subjects; cited from earlier work
[3] = test system: MOML-13 (Human Acute Myeloid Leukemia cell line); experiment: Combination Index (Chou-Talalay) of Compound 1 with second therapeutic agents; type: cell-based; details: for Combination Index: agent in combination with Compound 1, CI scores across all 3 ratios averaged, MOML-13
Description: (§5) Each combination was tested in 3 cell lines: MOML-13 (Human Acute Myeloid Leukemia cell line; Addex Bio), MV-4-11 (Human B Myelomoncytic Leukemia cell line; ATCC), and OCI-AML-3 (Human Acute Myeloid Leukemia cell line).
(§6) Within this range, 20 dose levels were tested for each combination, with each response determined in duplicate. […] The actual drug concentrations in the ratios were determined from the IC50 values obtained for each individual drug.
(§7) Raw data was analyzed using Graph Pad Prism, four parameter logistic fits, and Chou-Talalay drug combination analyses. […] For data points with Fe<0, the fractional effect was set to 0.001. Data points with Fe>0.99 or <0.01 were omitted from the Chou-Talalay analysis because the Chou-Talalay analysis fits data to the Log of the fractional effect, with equal weight applied across the range of effect, such that the high and low end of the dose response, very small changes in effect within the range of experimental error erroneously skew the outcome of the model fit.
(§8) A Combination Index (CI) vs Fractional Effect plot showing the actual combination index plotted vs Fractional effect value was plotted for each combination dose. In this analysis, CI=1 represents additive activity, CI>1 represent less than additive activity (often referred to as antagonism) and CI<1=synergistic activity (better than additive).

[4] = test system: OCI-AML-3 (Human Acute Myeloid Leukemia cell line); experiment: as above; type: cell-based
Description: as §5, §6, §7, §8

[5] = test system: MV-4-11 (Human B Myelomoncytic Leukemia cell line); experiment: as above; type: cell-based
Description: as §5, §6, §7, §8

[6] = single agent, read-out: Absolute IC50
[7] = 6×6 matrix of PARP inhibitor with Compound 1

SMILES: N.N.[Cl][Pt][Cl] [Cisplatin]
IC50 (SK-OV-3 (Ovary); [6]): 8.3 µM
IC50 [1, 6]: 10.2 µM
IC50 (HCC1806 (Breast)): 3.24 µM
IC50 (DU4475 (Breast)): 1.6 µM
IC50 (IGR-OV1 (Ovary)): 1.45 µM
IC50 (HCC1937 (Breast); [6]): 12.1 µM
IC50 (MX-1 (Breast); [6]): 6.6 µM
IC50 (HCC1395 (Breast)): 4.75 µM
IC50 (OVCAR-8 (Ovary)): 9.22 µM
IC50 (Capan-1 (Pancreas)): 1.68 µM

IC50 (HCC1806 (Breast); Homo sapiens, 72 h): > 5 µM
IC50 (HCC1395 (Breast); Homo sapiens, 72 h): > 5 µM
IC50 (OVCAR-8 (Ovary); Homo sapiens, 72 h): > 5 µM
SMILES: NC(=O)c1cccc2cn(-c3ccc([C@@H]4CCCNC4)cc3)nc12 [Niraparib, niraparib]
# in matrix with Bliss >5 (SK-OV-3 (Ovary); [7]): 8/36
# in matrix with Bliss >5 [1, 7]: 6/36
# in matrix with Bliss >5 (HCC1806 (Breast); [7]): 9/36
# in matrix with Bliss >5 (DU4475 (Breast); [7]): 10/36
IC50 (DU4475 (Breast); Homo sapiens, DU-4475, 72 h): 1.02 µM
# in matrix with Bliss >5 (IGR-OV1 (Ovary); [7]): 7/36
IC50 (IGR-OV1 (Ovary); Homo sapiens, IGROV-1, 72 h): > 5 µM
# in matrix with Bliss >5 (HCC1937 (Breast); [7]): 15/36
# in matrix with Bliss >5 (MX-1 (Breast); [7]): 4/36
# in matrix with Bliss >5 (HCC1395 (Breast); [7]): 6/36
# in matrix with Bliss >5 (OVCAR-8 (Ovary); [7]): 9/36
# in matrix with Bliss >5 (Capan-1 (Pancreas); [7]): 2/36
IC50 (Capan-1 (Pancreas); Homo sapiens, 72 h): > 5 µM

SMILES: Nc1ncn([C@H]2C[C@H](O)[C@@H](CO)O2)c(=O)n1 [Decitabine, decitabine, reference compound]
IC50 (HL-60 cell line; HL-60): 4.03 µM
IC50 (HL-60 cell line; HL-60, 72 h): 5.29 µM
IC50 (MV4; 11 cell line; MV4-11): 0.0071 µM
IC50 (MV4; 11 cell line; MV4-11, 72 h): 0.39 µM
IC50 (MOML-13 cell line): 0.0065 µM
IC50 (MOML-13 cell line; 72 h): 0.0108 µM

SMILES: Cc1cc2c(C(N)=O)cccc2n1-c1nc2c(c(NCc3ccccc3)n1)COCC2 [CB-5083, 1-[7,8-dihydro-4-[(phenylmethyl)amino]-5H-pyrano[4,3-d]pyrimidin-2-yl]-2-methyl-1H-indole-4-carboxamide]
visual adverse events [2]: symptoms of visual impairment or other visual adverse events

SMILES: CC(C)C[C@H](NC(=O)CNC(=O)c1cc(Cl)ccc1Cl)B(O)O [Ixazomib]
effect of the combination with Compound 1 ([3]; MOML-13 (BRCA2 mutant, FLT3 heterozygous)): antagonistic
Combination Index [3]: 1.413
effect of the combination with Compound 1 ([4]; OCI-AML-3 (FLT3 wildtype)): antagonistic
Combination Index ([4]; agent in combination with Compound 1, CI scores across all 3 ratios averaged, OCI-AML-3): 1.438
effect of the combination with Compound 1 ([5]; MV-4-11 (FLT3 homozygous mutant)): antagonistic
Combination Index ([5]; agent in combination with Compound 1, CI scores across all 3 ratios averaged, MV-4-11): 1.546

SMILES: CC1(C)CCC(CN2CCN(c3ccc(C(=O)NS(=O)(=O)c4ccc(NCC5CCOCC5)c([N+](=O)[O-])c4)c(Oc4cnc5[nH]ccc5c4)c3)CC2)=C(c2ccc(Cl)cc2)C1 [Venetoclax]
Combination Index [3]: 0.730
